In US11136349:
Where two headings read alike, the source gives them in different places.

Details: other bond

Question: Which ring closure, conversion (from acryloyl-Phe-Leu-Ala-Phe-Gly-OH, 17-membered ring, Ir[dF(CF3)ppy]2(dtbbpy)PF6/K2HPO4/blue LED, DMF, 2.5 mM) does the source give for CC(C)C[C@@H]1NC(=O)[C@H](Cc2ccccc2)NC(=O)CCCNC(=O)[C@H](Cc2ccccc2)NC(=O)[C@H](C)NC1=O [cyclo-[Aba-Phe-Leu-Ala-Phe]] here?
Answer: The ring closure, conversion was 93%.

Question: For CC(C)C[C@@H]1NC(=O)[C@H](Cc2ccccc2)NC(=O)CCC2(CC2)NC(=O)[C@H](Cc2ccccc2)NC(=O)[C@H](C)NC1=O [cyclo[(3-Ac)pa-Phe-Leu-Ala-Phe]], which ring closure, conversion (from acryloyl-Phe-Leu-Ala-Phe-Acc-OH, 17-membered ring, Ir[dF(CF3)ppy]2(dtbbpy)PF6/K2HPO4/blue LED, DMSO, 2.5 mM) is on record?
Answer: Its ring closure, conversion is 48%.

Question: For CC(C)C[C@@H]1NC(=O)[C@H](Cc2ccccc2)NC(=O)CCCNC(=O)[C@H](Cc2cn(C(c3ccccc3)(c3ccccc3)c3ccccc3)cn2)NC(=O)[C@H](C)NC1=O [cyclo-[Aba-Phe-Leu-Ala-His(Trt)]], which ring closure, conversion (from acryloyl-Phe-Leu-Ala-His(Trt)-Gly-OH, 17-membered ring, Ir[dF(CF3)ppy]2(dtbbpy)PF6/K2HPO4/blue LED, DMF, 1.0 mM) is on record?
Answer: The ring closure, conversion was 65%.

Question: Which ring closure, conversion (from acryloyl-Phe-Arg(Boc)2-Ala-Ser(tBu)-Gly-OH, 17-membered ring, Ir[dF(CF3)ppy]2(dtbbpy)PF6/K2HPO4/TRIP-SH/blue LED, DMF, 2.5 mM) does the source give for C[C@@H]1NC(=O)[C@H](CCCNC(=NC(=O)OC(C)(C)C)NC(=O)OC(C)(C)C)NC(=O)[C@H](Cc2ccccc2)NC(=O)CCCNC(=O)[C@H](COC(C)(C)C)NC1=O [cyclo-[Aha-Phe-Arg(Bo)2-Ser(tBu)-Ala]] here?
Answer: The ring closure, conversion was 59%.

Question: Which ring closure, conversion (from acryloyl-Ala-Tyr(tBu)-Gly-OH, 11-membered ring, Ir[dF(CF3)ppy]2(dtbbpy)PF6/K2HPO4/TRIP-SH/blue LED, DMF, 1.0 mM) does the source give for C[C@@H]1NC(=O)CCCNC(=O)[C@H](Cc2ccc(OC(C)(C)C)cc2)NC1=O [cyclo-[Aha-Ala-Tyr(tBu)]] here?
Answer: The ring closure, conversion was 24%.

Question: For CC(C)C[C@@H]1NC(=O)[C@H](CCC(=O)OC(C)(C)C)NC(=O)[C@@H]2CCCN2C(=O)[C@H](C)NC(=O)[C@H](Cc2ccccc2)NC(=O)CCCNC(=O)[C@H](C)NC(=O)[C@H](Cc2ccccc2)NC1=O [cyclo-[Aba-Phe-Leu-Ala-Phe]], which ring closure, conversion (from acryloyl-Phe-Ala-Pro-Glu(OtBu)-Leu-Phe-Ala-Gly-OH, 26-membered ring, Ir[dF(CF3)ppy]2(dtbbpy)PF6/K2HPO4/blue LED, DMF, 5.0 mM) is on record?
Answer: Its ring closure, conversion is 61%.

Question: For CC(C)[C@@H]1NC(=O)CCCNC(=O)[C@H](Cc2cn(C(=O)OC(C)(C)C)c3ccccc23)NC(=O)[C@H](Cc2ccccc2)NC(=O)[C@H]([C@@H](C)OC(C)(C)C)NC1=O [cyclo-[Aba-Val-Thr(tBu)-Phe-Trp(Boc)], which ring closure, conversion (from acryloyl-Val-Thr(tBu)-Phe-Trp(Boc)-Gly-OH, 17-membered ring, Ir[dF(CF3)ppy]2(dtbbpy)PF6/K2HPO4/blue LED, DMF, 2.5 mM) is on record?
Answer: Its ring closure, conversion is 56%.

Question: For CC(C)C[C@@H]1NC(=O)[C@H](Cc2ccccc2)NC(=O)CCC(CCC(=O)O)NC(=O)[C@H](Cc2ccccc2)NC(=O)[C@H](C)NC1=O (stereo partly drawn) [cyclo-[Ahda-Phe-Leu-Ala-Phe]], which ring closure, conversion (from acryloyl-Phe-Leu-Ala-Phe-Glu-OH, 17-membered ring, Ir[dF(CF3)ppy]2(dtbbpy)PF6/K2HPO4/blue LED, DMF, 2.5 mM) is on record?
Answer: Its ring closure, conversion is 38%.

Question: For CC(C)CC1CCC(=O)N[C@@H](Cc2ccccc2)C(=O)N[C@@H](CC(C)C)C(=O)N[C@@H](C)C(=O)N[C@@H](Cc2ccccc2)C(=O)N1C (stereo partly drawn) [cyclo-[(Me)Aba(4-iBu)-Phe-Leu-Ala-Phe]], which ring closure, conversion (from acryloyl-Phe-Leu-Ala-Phe-MeLeu-OH, 17-membered ring, Ir[dF(CF3)ppy]2(dtbbpy)PF6/K2HPO4/blue LED, DMF, 5.0 mM) is on record?
Answer: Its ring closure, conversion is 77%.

Question: With CC(C)C[C@@H]1NC(=O)[C@H](Cc2ccc(OC(C)(C)C)cc2)NC(=O)[C@H](C(C)C)NC(=O)[C@H]([C@@H](C)OC(C)(C)C)NC(=O)[C@H](C)NC(=O)[C@@H]2CCCN2C(=O)[C@H](CC(C)C)NC(=O)[C@H](Cc2ccccc2)NC(=O)[C@H](C)NC(=O)CCCNC1=O [cyclo-[Aba-Ala-Phe-Leu-Pro-Ala-Thr(tBu)-Val-Tyr(tBu)-Leu]] as the compound, how does the ring closure, conversion (from acryloyl-Ala-Phe-Leu-Pro-Ala-Thr(tBu)-Val-Tyr(tBu)-Leu-Gly-OH, 32-membered ring, Ir[dF(CF3)ppy]2(dtbbpy)PF6/K2HPO4/blue LED, DMF, 2.5 mM) read?
Answer: Its ring closure, conversion is 64%.

Question: For C#CC[C@@H]1NC(=O)[C@H](Cc2ccccc2)NC(=O)CCCNC(=O)[C@H](CCCCNC(=O)OC(C)(C)C)NC(=O)[C@H](C)NC1=O [cyclo-[Aba-Phe-Pra-Ala-Lys(Boc)]], which ring closure, conversion (from acryloyl-Phe-Pra-Ala-Lys(Boc)-Gly-OH, 17-membered ring, Ir[dF(CF3)ppy]2(dtbbpy)PF6/K2HPO4/blue LED, DMF, 5.0 mM) is on record?
Answer: The ring closure, conversion was 82%.

Question: For CC(C)C[C@@H]1NC(=O)[C@H](CCC(=O)NC(c2ccccc2)(c2ccccc2)c2ccccc2)NC(=O)[C@H](Cc2ccccc2)NC(=O)CCCNC(=O)[C@H](CCCCNC(=O)OC(C)(C)C)NC1=O [cyclo-[Aba-Phe-Gln(Trt)-Leu-Lys(Boc)]], which ring closure, conversion (from acryloyl-Phe-Gln(Trt)-Leu-Lys(Boc)-Gly-OH, 17-membered ring, Ir[dF(CF3)ppy]2(dtbbpy)PF6/K2HPO4/blue LED, DMF, 2.5 mM) is on record?
Answer: Its ring closure, conversion is 94%.

Question: For CC(C)C[C@@H]1NC(=O)[C@H](Cc2ccccc2)NC(=O)C(c2ccccc2)CCNC(=O)[C@H](Cc2ccccc2)NC(=O)[C@H](C)NC1=O (stereo partly drawn) [cyclo-[Aba(2-Ph)-Phe-Le-Ala-Phe]], which ring closure, conversion (from α-phenylacryloyl-Phe-Leu-Ala-Phe-Gly-OH, 17-membered ring, Ir[dF(CF3)ppy]2(dtbbpy)PF6/K2HPO4/blue LED, DMF, 2.5 mM) is on record?
Answer: Its ring closure, conversion is 95%.

Question: Which ring closure, conversion (from acryloyl-Phe-MeAla-Tyr(tBu)-Val-Gly-OH, 17-membered ring, Ir[dF(CF3)ppy]2(dtbbpy)PF6/K2HPO4/blue LED, DMF, 5.0 mM) does the source give for CC(C)[C@@H]1NC(=O)[C@H](Cc2ccc(OC(C)(C)C)cc2)NC(=O)[C@H](C)N(C)C(=O)[C@H](Cc2ccccc2)NC(=O)CCCNC1=O [cyclo-[Aba-Phe-(Me)Ala-Tyr(tBu)-Val]] here?
Answer: The ring closure, conversion was 66%.

Question: Which ring closure, conversion (from acryloyl-Phe-Leu-Ala-Phe(4-Br)-Gly-OH, 17-membered ring, Ir[dF(CF3)ppy]2(dtbbpy)PF6/K2HPO4/TRIP-SH/blue LED, DMF, 2.5 mM) does the source give for CC(C)C[C@@H]1NC(=O)[C@H](Cc2ccccc2)NC(=O)CCCNC(=O)[C@H](Cc2ccc(Br)cc2)NC(=O)[C@H](C)NC1=O [cyclo-[Aba-Phe-Leu-Ai-Phe(4-Br)]] here?
Answer: The ring closure, conversion was 48%.

Question: With CSCC[C@@H]1NC(=O)[C@H](Cc2ccccc2)NC(=O)CCCNC(=O)[C@H](CCC(=O)OC(C)(C)C)NC(=O)[C@H](CC(C)C)NC1=O [cyclo-[Aba-Phe-Met-Leu-Glu(OtBu)]] as the compound, how does the ring closure, conversion (from acryloyl-Phe-Met-Leu-Glu(tBu)-Gly-OH, 17-membered ring, Ir[dF(CF3)ppy]2(dtbbpy)PF6/K2HPO4/TRIP-SH/blue LED, DMF, 2.5 mM) read?
Answer: Its ring closure, conversion is 40%.

Question: With CC(C)C[C@@H]1NC(=O)[C@H](Cc2ccccc2)NC(=O)CCC2(CCCC2)NC(=O)[C@H](Cc2ccccc2)NC(=O)[C@H](C)NC1=O [cyclo[(3-Aep)pa-Phe-[Leu-Aa-Phe]] as the compound, how does the ring closure, conversion (from acryloyl-Phe-Leu-Ala-Phe-Aepe-OH, 17-membered ring, Ir[dF(CF3)ppy]2(dtbbpy)PF6/K2HPO4/blue LED, DMSO, 2.5 mM) read?
Answer: Its ring closure, conversion is 49%.

Question: Which ring closure, conversion (47-membered ring, Ir[dF(CF3)ppy]2(dtbbpy)PF6/K2HPO4/blue LED, DMF, 0.25 mM) does the source give for “cyclo-[Aba-Ala-Leu-Pbe-Lys(Boc)-Pro-Ala-Phe-Ala-Leu-Pro-Glu(OBu)-Leu-Phe-VaI]” here?
Answer: The ring closure, conversion was 60%.
